According to publication PMC9821843, “Powerful Potential of Polyfluoroalkyl-Containing 4-Arylhydrazinylidenepyrazol-3-ones for Pharmaceuticals” (Molecules, 2022):
≈ marks a conversion by molar mass, not a printed value. Where “and” joins values, the source holds several entries; their conditions need not be identical. Equal values may be shown once. Read-outs that look alike come from different tables or passages of the source.

Columns and labels:
[1] = target: T1, equine serum butyrylcholinesterase (BChE, EC 3.1.1.8) (Equus caballus, UniProt P81908); experiment: Inhibition of equine serum butyrylcholinesterase (Ellman assay); assay type: biochemical; details: read-out: Inhibition % at 20 µM, Equine BChE
T1 construct: equine serum butyrylcholinesterase (BChE, EC 3.1.1.8); purchased Sigma-Aldrich (Saint Louis, MO, USA); host or cells: equine serum
T1 sequence (P81908 whole entry): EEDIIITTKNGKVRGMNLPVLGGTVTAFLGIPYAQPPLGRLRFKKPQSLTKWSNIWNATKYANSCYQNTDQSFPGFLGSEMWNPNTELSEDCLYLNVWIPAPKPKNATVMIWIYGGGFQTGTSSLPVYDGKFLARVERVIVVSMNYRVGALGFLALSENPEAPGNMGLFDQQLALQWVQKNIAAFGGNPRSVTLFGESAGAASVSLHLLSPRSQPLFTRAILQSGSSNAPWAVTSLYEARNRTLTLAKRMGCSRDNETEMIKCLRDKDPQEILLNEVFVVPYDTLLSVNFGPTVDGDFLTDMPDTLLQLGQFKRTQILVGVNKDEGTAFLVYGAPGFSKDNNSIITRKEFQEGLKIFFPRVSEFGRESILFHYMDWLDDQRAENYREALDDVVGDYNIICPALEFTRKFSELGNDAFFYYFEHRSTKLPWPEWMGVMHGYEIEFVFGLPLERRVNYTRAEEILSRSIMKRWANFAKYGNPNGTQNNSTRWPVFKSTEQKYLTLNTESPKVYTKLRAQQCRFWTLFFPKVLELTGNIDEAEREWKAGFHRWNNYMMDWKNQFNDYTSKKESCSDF
Outline: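 Ellman colorimetric assay with 0.02 unit/mL BChE, 1 mM butyrylthiocholine iodide and 0.33 mM DTNB, 2% (v/v) DMSO final; substrate added after enzyme-compound mixing. Residual activity versus inhibitor-free control, blanks without enzyme; triplicates, IC50 by linear regression.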

[2] = ABTS radical cation scavenging activity assay; parameters: key to ABTS•+-scavenging activity, TEAC (trolox equivalent antioxidant capacity): TEAC = ratio of compound slope to Trolox slope vs ABTS absorbance; details: mean ± SEM; for ABTS•+-scavenging activity, TEAC (trolox equivalent antioxidant capacity): n.a. = inactive
Outline: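 ABTS•+ (from 7 mM ABTS plus 2.45 mM persulfate) mixed with compound, 5 × 10^–7–4 × 10^–4 M, 1 h at 30 °C; absorbance decrease read at 734 nm. TEAC from slope ratio versus Trolox; IC50 as 50% radical reduction for compounds exceeding 60% reduction at 100 µM.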

[3] = Acute toxicity evaluation in mice (ip); details: CD-1, mouse, in vivo, 300 mg/kg
Method: The toxicity evaluation was performed on CD-1 mice. […] The tested compounds in 1% starch mucilage were injected intraperitoneally into three mice. Then, animals were observed during 14 days, the number of deaths was counted and % of viability calculated.

Sprague-Dawley (SD) rats = experiment: Hot plate test (analgesic activity); assay type: in vivo; details: ip; for change in vivo at 15 mg/kg: Rattus norvegicus
Outline: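 Test compounds were given i.p. as suspensions in 1% starch mucilage to SD rats (3 male, 3 female per group), vehicle as negative control. At 1 and 2 h post-dose, latency to nociceptive response (jumping, hind paw licking/shaking) on a 50 °C plate was recorded, 30 s cutoff.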

[4] = test system: Neisseria gonorrhoeae ATCC 49226/NCTC 12700; experiment: Antibacterial activity against Neisseria gonorrhoeae; assay type: cell-based; details: read-out: MIC against Neisseria gonorrhoeae
[5] = test system: Microsporum canis RCPF F 1643/1585; experiment: Antifungal susceptibility testing, M. canis; details: for MIC: Microsporum canis, RCPFF1643/1585, read-out: MIC for fungi strains inhibition, M. canis
Description: (§1) The solvent was DMSO. […] In each test, a growth control and a sterility control were used.

[6] = test system: Trichophyton rubrum RCPF F 1408; experiment: Antifungal susceptibility testing, T. rubrum; details: for MIC: Trichophyton rubrum, RCPFF1408, read-out: MIC for fungi strains inhibition, T. rubrum
Description: as §1

[7] = test system: Epidermophyton floccosum RCPF F 1659/17; experiment: Antifungal susceptibility testing, E. floccosum; details: for MIC: Epidermophyton floccosum, RCPFF1659/17, read-out: MIC for fungi strains inhibition, E. floccosum
Description: as §1

[8] = hot plate test, rats, dose 15 mg/kg, 1 h, n.a. = inactive (p > 0.05), read-out: Latent Period Prolongation, % 1 h
[9] = hot plate test, rats, dose 15 mg/kg, 2 h, n.a. = inactive (p > 0.05), read-out: Latent Period Prolongation, % 2 h
[10] = 1 h, read-out: Latent Period Prolongation, % 1 h
[11] = 2 h, read-out: Latent Period Prolongation, % 2 h

Compound	inhibition at 20 µM [1]	IC50 [2]	ABTS•+-scavenging activity, TEAC (trolox equivalent antioxidant capacity) [2]	survival at 14 days [3]	change in vivo at 15 mg/kg (Sprague-Dawley (SD) rats; [8])	MIC [4]	change in vivo at 15 mg/kg (Sprague-Dawley (SD) rats; [9])	MIC [5]	MIC [6]	MIC [7]	MIC for fungi strains inhibition, M. canis [5]	MIC for fungi strains inhibition, T. rubrum [6]	MIC for fungi strains inhibition, E. floccosum [7]	analgesic activity in the hot plate test (Sprague-Dawley (SD) rats; SD rats, dose 15 mg/kg, 1 and 2 h)	change in vivo at 15 mg/kg (Sprague-Dawley (SD) rats; [10])	change in vivo at 15 mg/kg (Sprague-Dawley (SD) rats; [11])
O=C1NN=C(C(F)(F)F)/C1=N/Nc1ccccc1 [5a, (Z)-4-(2-Phenylhydrazinylidene)-5-(trifluoromethyl)-2,4-dihydro-3H-pyrazol-3-one]	10.7 ± 1.8%	42.8 ± 2.3 µM	0.50 ± 0.03	100%	40%	–	–	–	–	–	–	–	–	–	–	–
Cc1ccc(N/N=C2\C(=O)NN=C2C(F)(F)F)cc1 [5b, (4Z)-4-[2-(4-Methylphenyl)hydrazinylidene]-5-(trifluoromethyl)-2,4-dihydro-3H-pyrazol-3-one]	–	46.2 ± 2.4 µM	0.42 ± 0.03	100%	69.5%	62.5 µg/mL (≈ 231 µM)	59.7%	100 µg/mL (≈ 370 µM)	50 µg/mL (≈ 185 µM)	> 200 µg/mL	–	–	–	–	–	–
O=C1NN=C(C(F)(F)F)/C1=N/Nc1ccc(Br)cc1 [5c, (4Z)-4-[2-(4-Bromophenyl)hydrazinylidene]-5-(trifluoromethyl)-2,4-dihydro-3H-pyrazol-3-one]	5.9 ± 1%	41.5 ± 2.4 µM	0.40 ± 0.02	100%	–	125 µg/mL (≈ 373 µM)	51%	25 µg/mL (≈ 74.6 µM)	12.5 µg/mL (≈ 37.3 µM)	12.5 µg/mL (≈ 37.3 µM)	25 µg/mL	12.5 µg/mL	12.5 µg/mL	–	–	–
Cc1ccc(N/N=C2\C(=O)N(C)N=C2C(F)(F)F)cc1 [5d, (4Z)-2-Methyl-4-[2-(4-methylphenyl)hydrazinylidene]-5-(trifluoromethyl)-2,4-dihydro-3H-pyrazol-3-one]	–	161 ± 3.2 µM	0.15 ± 0.01	100%	–	15.6 µg/mL (≈ 54.9 µM)	–	200 µg/mL (≈ 704 µM)	200 µg/mL (≈ 704 µM)	200 µg/mL (≈ 704 µM)	–	–	–	inactive	–	–
Cc1ccc(N/N=C2\C(=O)N(c3ccccc3)N=C2C(F)(F)F)cc1 [5f, (4Z)-4-[2-(4-Methylphenyl)hydrazinylidene]-2-phenyl-5-(trifluoromethyl)-2,4-dihydro-3H-pyrazol-3-one]	–	–	0.1 ± 0.006	100%	63%	62.5 µg/mL (≈ 180 µM)	68%	200 µg/mL (≈ 578 µM)	> 200 µg/mL	200 µg/mL (≈ 578 µM)	–	–	–	–	–	–
CS(=O)(=O)c1ccc(N/N=C2\C(=O)N(c3ccccc3)N=C2C(F)(F)F)cc1 [5m, (4Z)-4-(2-[4-(Methylsulfonyl)phenyl]hydrazinylidene)-2-phenyl-5-(trifluoromethyl)-2,4-dihydro-3H-pyrazol-3-one]	4 ± 1%	–	–	100%	116%	125 µg/mL (≈ 305 µM)	144%	> 200 µg/mL	100 µg/mL (≈ 244 µM)	> 200 µg/mL	–	–	–	–	–	–
Cc1ccc(N/N=C2\C(=O)N(c3ccc(S(N)(=O)=O)cc3)N=C2C(F)(F)F)cc1 [5p, (4Z)-2-[4-(Aminosulfonyl)phenyl]-4-[2-(4-methylphenyl)hydrazinylidene]-5-(trifluoromethyl)-2,4-dihydro-3H-pyrazol-3-one]	3.6 ± 0.9%	–	0.03 ± 0.002	100%	62.1%	62.5 µg/mL (≈ 147 µM)	70.9%	> 200 µg/mL	> 200 µg/mL	> 200 µg/mL	–	–	–	–	–	–
Cc1ccc(N/N=C2\C(=O)NN=C2C(F)(F)C(F)(F)F)cc1 [6a, (4Z)-4-[2-(4-Methylphenyl)hydrazinylidene]-5-(pentafluoroethyl)-2,4-dihydro-3H-pyrazol-3-one]	3.3 ± 0.9%	46.8 ± 2.1 µM	0.45 ± 0.03	100%	83.9%	62.5 µg/mL (≈ 195 µM)	63.3%	–	–	–	–	–	–	–	–	–
Cc1ccc(N/N=C2\C(=O)N(c3ccccc3)N=C2C(F)(F)C(F)(F)F)cc1 [6b, (4Z)-4-[2-(4-Methylphenyl)hydrazinylidene]-5-(pentafluoroethyl)-2-phenyl-2,4-dihydro-3H-pyrazol-3-one]	5.7 ± 1.3%	–	0.04 ± 0.002	100%	158%	0.9 µg/mL (≈ 2.27 µM)	74.3%	–	–	–	–	–	–	–	–	–
Cc1ccc(N/N=C2\C(=O)NN=C2C(F)(F)C(F)(F)C(F)(F)F)cc1 [7a, (4Z)-5-(Heptafluoropropyl)-4-[2-(4-methylphenyl)hydrazinylidene]-2,4-dihydro-3H-pyrazol-3-one]	10.5 ± 1.1%	41.5 ± 1.8 µM	0.54 ± 0.03	100%	–	> 250 µg/mL	–	> 200 µg/mL	> 200 µg/mL	200 µg/mL (≈ 540 µM)	–	–	–	–	42%	52%
Cc1ccc(N/N=C2\C(=O)N(c3ccccc3)N=C2C(F)(F)C(F)(F)C(F)(F)F)cc1 [7b, (4Z)-5-(Heptafluoropropyl)-4-[2-(4-methylphenyl)hydrazinylidene]-2-phenyl-2,4-dihydro-3H-pyrazol-3-one]	4.5 ± 1.2%	–	0.03 ± 0.002	100%	–	31.2 µg/mL (≈ 69.9 µM)	–	–	–	–	–	–	–	–	144%	82.3%
CC1=NNC(=O)/C1=N\Nc1ccc(C)cc1 [9a, (4Z)-5-Methyl-4-[2-(4-methylphenyl)hydrazinylidene]-2,4-dihydro-3H-pyrazol-3-one]	4.3 ± 1%	25.4 ± 1.1 µM	0.86 and 0.86 ± 0.04	100%	80.8%	> 250 µg/mL	–	–	–	–	–	–	–	–	–	–
CC1=NN(c2ccccc2)C(=O)/C1=N\Nc1ccc(C)cc1 [9b, (4Z)-5-Methyl-4-[2-(4-methylphenyl)hydrazinylidene]-2-phenyl-2,4-dihydro-3H-pyrazol-3-one]	–	28.3 ± 1.2 µM	0.8 and 0.80 ± 0.05	100%	–	> 250 µg/mL	140%	> 200 µg/mL	> 200 µg/mL	> 200 µg/mL	–	–	–	–	–	–
